Measurements taken from US20240083861A1, “HSD17B13 INHIBITORS AND USES THEREOF” (FL2022-001, Inc., priority 2020, published 2024).
pIC50: −log10 of the molar value.

biological target: T1, Recombinant human HSD17B13 enzyme (Homo sapiens, UniProt Q7Z5P4); experiment: HSD17b13 NAD(P)H-Glo biochemical assay; details: 50 uM estradiol, 1 mM NAD+, NAD(P)H-Glo luminescence; read-out: HSD17β13 IC50
T1 sequence (Q7Z5P4 20-300): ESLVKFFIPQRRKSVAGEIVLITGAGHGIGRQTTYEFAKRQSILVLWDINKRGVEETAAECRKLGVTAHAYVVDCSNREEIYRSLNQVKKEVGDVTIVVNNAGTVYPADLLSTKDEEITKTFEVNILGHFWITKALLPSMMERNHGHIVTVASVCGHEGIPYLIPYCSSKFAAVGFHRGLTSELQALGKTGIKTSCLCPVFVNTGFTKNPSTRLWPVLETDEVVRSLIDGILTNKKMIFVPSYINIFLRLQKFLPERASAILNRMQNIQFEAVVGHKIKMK
Method in brief: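 Luminescent NAD(P)H-Glo read-out, taken after 1 hour at RT, measured cofactor reduction. Substrate and cofactor were estradiol at 50 uM and NAD+ at 1 mM final, reacted with the recombinant human enzyme for 3 hours at 37° C in 20 mM Tris pH7.4, 0.002% Tween-20, 0.02% BSA. Compound was pre-incubated with enzyme for 20 minutes at RT.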

pIC50	SMILES
> 7.00	Cn1nc(-c2cc(C(F)(F)F)c(F)c(O)c2F)c2cnc(N3CCOCC3CO)nc21 (stereo not shown) [Compound 18.01, 2,6-Difluoro-3-(6-(3-(hydroxymethyl)morpholino)-1-methyl-1H-pyrazolo[3,4-d]pyrimidin-3-y1)-5-(trifluoromethyl)phenol]
6.00 to 7.00	Cn1nc(-c2cc(C(F)(F)F)c(F)c(O)c2F)c2cnc(N3CCOC(CO)C3)nc21 (stereo not shown) [Compound 18.02, 2,6-Difluoro-3-(6-(2-(hydroxymethyl)morpholino)-1-methyl-1H-pyrazolo[3,4-d]pyrimidin-3-y1)-5-(trifluoromethyl)phenol]
> 7.00	COCC1COCCN1c1ncc2c(-c3cc(C(F)(F)F)c(F)c(O)c3F)nn(C)c2n1 (stereo not shown) [Compound 18.03, 2,6-Difluoro-3-(6-(3-(methoxymethyl)morpholino)-1-methyl-1H-pyrazolo[3,4-d]pyrimidin-3-y1)-5-(trifluoromethyl)phenol]
> 7.00	Cn1nc(-c2cc(C(F)(F)F)c(F)c(O)c2F)c2cnc(N3CCC(O)CC3)nc21 [Compound 18.04, 1-(3-(2,4-Difluoro-3-hydroxy-5-(trifluoromethyl)phenyl)-1-methyl-1H-pyrazolo[3,4-d]pyrimidin-6-y1)piperidin-4-ol]
> 7.00	Cn1nc(-c2cc(C(F)(F)F)c(F)c(O)c2F)c2cnc(N3CCCC(O)C3)nc21 (stereo not shown) [Compound 18.05, 1-(3-(2,4-Difluoro-3-hydroxy-5-(trifluoromethyl)phenyl)-1-methyl-1H-pyrazolo[3,4-d]pyrimidin-6-y1)piperidin-3-ol]
> 7.00	COC1CCCN(c2ncc3c(-c4cc(C(F)(F)F)c(F)c(O)c4F)nn(C)c3n2)C1 (stereo not shown) [Compound 18.06, 2,6-Difluoro-3-(6-(3-methoxypiperidin-1-yl)-1-methyl-1H-pyrazolo[3,4-d]pyrimidin-3-yl)-5-(trifluoromethyl)phenol]
> 7.00	Cn1nc(-c2cc(C(F)(F)F)c(F)c(O)c2F)c2cnc(N3CCOC(C(N)=O)C3)nc21 (stereo not shown) [Compound 18.07, 4-(3-(2,4-Difluoro-3-hydroxy-5-(trifluoromethyl)phenyl)-1-methyl-1H-pyrazolo[3,4-d]pyrimidin-6-yl)morpholine-2-carboxamide]
> 7.00	CN1CCC2(CCN(c3ncc4c(-c5cc(C(F)(F)F)c(F)c(O)c5F)nn(C)c4n3)CC2)C1=O [Compound 18.08, 8-(3-(2,4-Difluoro-3-hydroxy-5-(trifluoromethyl)phenyl)-1-methyl-1H-pyrazolo[3,4-d]pyrimidin-6-yl)-2-methyl-2,8-diazaspiro[4.5]decan-1-one]
> 7.00	Cn1nc(-c2cc(C(F)(F)F)c(F)c(O)c2F)c2cnc(N3CCC(C(N)=O)CC3)nc21 [Compound 18.09, 1-(3-(2,4-Difluoro-3-hydroxy-5-(trifluoromethyl)phenyl)-1-methyl-1H-pyrazolo[3,4-d]pyrimidin-6-yl)piperidine-4-carboxamide]
> 7.00	Cn1nc(-c2cc(C(F)(F)F)c(F)c(O)c2F)c2cnc(N3CCC4(CCNC4=O)CC3)nc21 [Compound 18.10, 8-(3-(2,4-Difluoro-3-hydroxy-5-(trifluoromethyl)phenyl)-1-methyl-1H-pyrazolo[3,4-d]pyrimidin-6-yl)-2,8-diazaspiro[4.5]decan-1-one]
6.00 to 7.00	Cn1nc(-c2cc(C(F)(F)F)c(F)c(O)c2F)c2cnc(N3[C@@H]4CNC[C@H]3COC4)nc21 [Compound 18.11, 3-(6-((1R,5S)-3-oxa-7,9-diazabicyclo[3.3.1]nonan-9-y1)-1-methyl-1H-pyrazolo[3,4-d]pyrimidin-3-y1)-2,6-difluoro-5-(trifluoromethyl)phenol]
6.00 to 7.00	Cn1nc(-c2cc(C(F)(F)F)c(F)c(O)c2F)c2cnc(N3CC4(CCCNC4=O)C3)nc21 [Compound 18.12, 2-(3-(2,4-Difluoro-3-hydroxy-5-(trifluoromethyl)phenyl)-1-methyl-1H-pyrazolo[3,4-d]pyrimidin-6-yl)-2,6-diazaspiro[3.5]nonan-5-one]
> 7.00	Cn1nc(-c2cc(C(F)(F)F)c(F)c(O)c2F)c2cnc(N3CCC34CCOCC4)nc21 [Compound 18.13, 2,6-Difluoro-3-(1-methy1-6-(7-oxa-1-azaspiro[3.5]nonan-1-y1)-1H-pyrazolo[3,4-d]pyrimidin-3-y1)-5-(trifluoromethyl)phenol]
> 7.00	Cn1nc(-c2cc(C(F)(F)F)c(F)c(O)c2F)c2cnc(N3CCC(CO)CC3)nc21 [Compound 18.14, 2,6-Difluoro-3-(6-(4-(hydroxymethyl)piperidin-1-y1)-1-methyl-1H-pyrazolo[3,4-d]pyrimidin-3-y1)-5-(trifluoromethyl)phenol]
> 7.00	Cn1nc(-c2cc(C(F)(F)F)c(F)c(O)c2F)c2cnc(N3CCC4(CCC(=O)N4)CC3)nc21 [Compound 18.15, 8-(3-(2,4-Difluoro-3-hydroxy-5-(trifluoromethyl)phenyl)-1-methyl-1H-pyrazolo[3,4-d]pyrimidin-6-yl)-1,8-diazaspiro[4.5]decan-2-one]
> 7.00	Cn1nc(-c2cc(C(F)(F)F)c(F)c(O)c2F)c2cnc(N3CCC4(CC3)CC(=O)N4)nc21 [Compound 18.16, 7-(3-(2,4-Difluoro-3-hydroxy-5-(trifluoromethyl)phenyl)-1-methyl-1H-pyrazolo[3,4-d]pyrimidin-6-yl)-1,7-diazaspiro[3.5]nonan-2-one]
> 7.00	CN1CCN(c2ncc3c(-c4cc(C(F)(F)F)c(F)c(O)c4F)nn(C)c3n2)CC12CC2 [Compound 18.17, 2,6-Difluoro-3-(1-methyl-6-(4-methyl-4,7-diazaspiro[2.5]octan-7-y1)-1H-pyrazolo[3,4-d]pyrimidin-3-y1)-5-(trifluoromethyl)phenol]
> 7.00	Cn1nc(-c2cc(C(F)(F)F)c(F)c(O)c2F)c2cnc(N3CCNC4(CC4)C3)nc21 [Compound 18.18, 2,6-Difluoro-3-(1-methyl-6-(4,7-diazaspiro[2.5]octan-7-y1)-1H-pyrazolo[3,4-d]pyrimidin-3-y1)-5-(trifluoromethyl)phenol]
6.00 to 7.00	CCN1CCN(c2ncc3c(-c4cc(C(F)(F)F)c(F)c(O)c4F)nn(C)c3n2)CC1=O [Compound 18.19, 4-(3-(2,4-Difluoro-3-hydroxy-5-(trifluoromethyl)phenyl)-1-methyl-1H-pyrazolo[3,4-d]pyrimidin-6-yl)-1-ethylpiperazin-2-one]
> 7.00	COCC1(N(C)c2ncc3c(-c4cc(C(F)(F)F)c(F)c(O)c4F)nn(C)c3n2)CCC1 [Compound 18.20, 2,6-Difluoro-3-(6-((1-(methoxymethyl)cyclobutyl)(methy 1)amino)-1-methy1-1H-pyrazolo[3,4-d]pyrimidin-3-y1)-5-(trifluoromethyl)phenol]
> 7.00	Cn1nc(-c2cc(C(F)(F)F)c(F)c(O)c2F)c2cnc(N3CCN(C4CC4)C(=O)C3)nc21 [Compound 18.21, 1-Cyclopropyl-4-(3-(2,4-difluoro-3-hydroxy-5-(trifluoromethyl)phenyl)-1-methyl-1H-pyrazolo[3,4-d]pyrimidin-6-y1)piperazin-2-one]
> 7.00	CC(=O)NC1CCN(c2ncc3c(-c4cc(C(F)(F)F)c(F)c(O)c4F)nn(C)c3n2)CC1 [Compound 18.22, N-(1-(3-(2,4-Difluoro-3-hydroxy-5-(trifluoromethyl)phenyl)-1-methyl-1H-pyrazolo[3,4-d]pyrimidin-6-y1)piperidin-4-yl)acetamide]
